Reference: patent publication US10034836B2, “Formulations of guanylate cyclase C agonists and methods of use” (SYNERGY PHARMACEUTICALS, INC., priority 2008, dated 2018)

Columns and labels:
T84 cells = assay: cGMP synthesis in T84 cells, GCC agonist alone or in combination with PDE inhibitors; format: cell-based, human; settings: 100 μM, 30 min
Experimental: FIG. 9: Stimulation of cGMP synthesis in T84 cells by SP-304 (0.1 μM) either alone or in combination with the phosphodiesterase (PDE) inhibitors Sulindac Sulfone (100 μM) or Zaprinast (100 μM). T84 cells were exposed to various treatments, as indicated, for 30 min and the cell lysates were used to determine the intracellular cGMP levels. Data points shown are the average of duplicate measurements.
FIG. 10: Stimulation of cGMP synthesis in T84 cells by SP-304 (0.1 or 1.0 μM) either alone or in combination with incremental concentrations of phosphodiesterase (PDE) inhibitors, as indicated. T84 cells were exposed to various treatments, as indicated, for 30 min and the cell lysates were used to determine the intracellular cGMP levels. Data points shown are the average of duplicate measurements. […]
SS and ZAP in combination with SP-304 or SP-333 were evaluated to see if these PDE inhibitors had any synergistic effects on intracellular accumulation of cGMP (FIG. 9-12). […]
For the results shown in FIG. 9, cyclic GMP synthesis in T84 cells was assessed essentially as described in Shailubhai et al., Cancer Research 60, 5151-5157 (2000). […] Following centrifugation and the addition of NaOH (0.1 N) to neutralize the pH, intracellular cGMP levels were determined in lysates using a cGMP ELISA kit (Cat. No. 581021; Cayman Chemical, Ann Arbor, Mich.). […]

BDF1 mice = assay: DSS-induced colitis in BDF-1 mice; format: in vivo; settings: 5% DSS, 80 mg/kg oral gavage daily (positive control)
Experimental: The cGMP pathway mediates the anti-inflammatory effects of cellular molecules such as nitric oxide and heme oxygenase-1. […] The anti-inflammatory effects of the GCC agonist SP-304 were evaluated in a murine model of ulcerative colitis, the DSS-induced colitis model.
Forty eight BDF1 mice were divided into 8 treatment groups (6 mice/group). One group was not exposed to DSS (untreated control) and groups […] were treated with 5% DSS in the drinking water. DSS was refreshed daily. All mice were weighed on day −1, and treated with the test materials beginning on day −1. 4 hrs post dosing on Day 0, DSS was placed in the drinking water of groups 2-8 and DSS remained in the water until the end of the study. The test agents were administered at 9 AM daily until day 7. Animals were treated with a single dose of test agents and the groups were as follows:
All doses were administered by oral gavage using a 0.1 ml dose per 10 g body weight. To avoid cage-to-cage variation, different treatment groups were housed in the same cage and animals were ear punched for identification purposes. Mice were sacrificed on day 7, 4-6 hrs post last dosing. […] All slides were scored in a blinded manner.
Five different sections of the tissue were examined for histopathological scoring and the scores were averaged for each mouse. The histopathology scores in FIG. 17 are expressed as an average of 6 mice.

mice treated with TNBS = assay: Stool consistency in TNBS-induced murine model of colitis; format: in vivo; settings: oral administration (FIG. 13)
Source text: The anal administration of trinitrobenzene sulphonic acid (TNBS) is typically used to produce intestinal blockage, resulting in poor stool consistency.

SMILES | intracellular accumulation of cGMP, PDE inhibitor alone (T84 cells) | severity of inflammation in large intestine (histopathology score) (BDF1 mice) | stool consistency in mice treated with TNBS (mice treated with TNBS)
CC1=C(CC(=O)O)c2cc(F)ccc2/C1=C\c1ccc(S(C)(=O)=O)cc1 [Sulindac Sulfone] | did not enhance | – | –
O=C(O)c1cc(/N=N/c2ccc(S(=O)(=O)Nc3ccccn3)cc2)ccc1O [Sulfasalazine] | – | considerably reduced | restored normal stool consistency
